Source: the supplement of paper PMC10307832

What was measured:
Test in all cases: relative viability (nuclei count vs DMSO), 5 days (fraction); higher = more cells survive
SK-MES-1 = system: SK-MES-1
Method in brief: (§1)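 Relative viability was taken as the ratio of nuclei in treated wells to nuclei in vehicle wells. Lung cancer cell lines in 1536-well plates received compounds by pin tool one day after seeding, either one drug alone or a fixed anchor-drug dose plus five library-drug doses (not always all listed) in √10 steps. Nuclei were counted on 4× images after 5 days of treatment, and values are medians of duplicate plates.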

NCI-H1563 = system: NCI-H1563
Method in brief: as §1

PC-3 [JPC-3] = system: PC-3 [JPC-3]
Method in brief: as §1

NCI-H520 = system: NCI-H520
Method in brief: as §1

NCI-H23 = system: NCI-H23
Method in brief: as §1

NCI-H1755 = system: NCI-H1755
Method in brief: as §1

NCI-H1792 = system: NCI-H1792
Method in brief: as §1

LK-2 = system: LK-2
Method in brief: as §1

NCI-H2170 = system: NCI-H2170
Method in brief: as §1

NCI-H1666 = system: NCI-H1666
Method in brief: as §1

NCI-H1944 = system: NCI-H1944
Method in brief: as §1

NCI-H596 = system: NCI-H596
Method in brief: as §1

NCI-H1975 = system: NCI-H1975
Method in brief: as §1

EMC-BAC-2 = system: EMC-BAC-2
Method in brief: as §1

EKVX = system: EKVX
Method in brief: as §1

HCC-366 = system: HCC-366
Method in brief: as §1

A-427 = system: A-427
Method in brief: as §1

H3255 = system: H3255
Method in brief: as §1

NCI-H1734 = system: NCI-H1734
Method in brief: as §1

COR-L 105 = system: COR-L 105
Method in brief: as §1

NCI-H441 = system: NCI-H441
Method in brief: as §1

LOU-NH91 = system: LOU-NH91
Method in brief: as §1

## Clc1ccc(Nc2nnc(Cc3ccncc3)c3ccccc23)cc1 [Vatalanib] + Cc1nc(NC(=O)N2CCC[C@H]2C(N)=O)sc1-c1ccnc(C(C)(C)C(F)(F)F)c1 [Alpelisib] (partner 2 µM)
SK-MES-1; first compound 0.04 µM
  relative viability: 1.11
SK-MES-1; first compound 0.1265 µM
  relative viability: 0.849
SK-MES-1; first compound 0.4 µM
  relative viability: 0.912
SK-MES-1; first compound 1.265 µM
  relative viability: 0.807
SK-MES-1; first compound 4 µM
  relative viability: 0.868
NCI-H1563; first compound 0.04 µM
  relative viability: 0.937
NCI-H1563; first compound 0.1265 µM
  relative viability: 0.862
NCI-H1563; first compound 0.4 µM
  relative viability: 1.03
NCI-H1563; first compound 1.265 µM
  relative viability: 0.863
NCI-H1563; first compound 4 µM
  relative viability: 0.979
PC-3 [JPC-3]; first compound 0.04 µM
  relative viability: 1.01
PC-3 [JPC-3]; first compound 0.1265 µM
  relative viability: 0.972
PC-3 [JPC-3]; first compound 0.4 µM
  relative viability: 1.01
PC-3 [JPC-3]; first compound 1.265 µM
  relative viability: 0.941
PC-3 [JPC-3]; first compound 4 µM
  relative viability: 1.01
NCI-H520; first compound 0.04 µM
  relative viability: 0.848
NCI-H520; first compound 0.1265 µM
  relative viability: 0.895
NCI-H520; first compound 0.4 µM
  relative viability: 0.912
NCI-H520; first compound 1.265 µM
  relative viability: 0.855
NCI-H520; first compound 4 µM
  relative viability: 0.852
NCI-H23; first compound 0.04 µM
  relative viability: 0.649
NCI-H23; first compound 0.1265 µM
  relative viability: 0.672
NCI-H23; first compound 0.4 µM
  relative viability: 0.78
NCI-H23; first compound 1.265 µM
  relative viability: 0.775
NCI-H23; first compound 4 µM
  relative viability: 0.75
NCI-H1755; first compound 0.04 µM
  relative viability: 0.946
NCI-H1755; first compound 0.1265 µM
  relative viability: 0.895
NCI-H1755; first compound 0.4 µM
  relative viability: 0.977
NCI-H1755; first compound 1.265 µM
  relative viability: 0.857
NCI-H1755; first compound 4 µM
  relative viability: 0.906
NCI-H1792; first compound 0.04 µM
  relative viability: 0.669
NCI-H1792; first compound 0.1265 µM
  relative viability: 0.741
NCI-H1792; first compound 0.4 µM
  relative viability: 0.639
NCI-H1792; first compound 1.265 µM
  relative viability: 0.677
NCI-H1792; first compound 4 µM
  relative viability: 0.73
LK-2; first compound 0.04 µM
  relative viability: 0.951
LK-2; first compound 0.1265 µM
  relative viability: 0.999
LK-2; first compound 1.265 µM
  relative viability: 1.07
LK-2; first compound 4 µM
  relative viability: 1.24
NCI-H2170; first compound 0.04 µM
  relative viability: 0.86
NCI-H2170; first compound 0.1265 µM
  relative viability: 0.777
NCI-H2170; first compound 0.4 µM
  relative viability: 0.861
NCI-H2170; first compound 1.265 µM
  relative viability: 0.81
NCI-H2170; first compound 4 µM
  relative viability: 0.811
NCI-H1666; first compound 0.04 µM
  relative viability: 1.23
NCI-H1666; first compound 0.1265 µM
  relative viability: 0.934
NCI-H1666; first compound 0.4 µM
  relative viability: 0.978
NCI-H1666; first compound 1.265 µM
  relative viability: 0.996
NCI-H1666; first compound 4 µM
  relative viability: 0.941
NCI-H1944; first compound 0.04 µM
  relative viability: 0.888
NCI-H1944; first compound 0.1265 µM
  relative viability: 0.706
NCI-H1944; first compound 0.4 µM
  relative viability: 0.833
NCI-H1944; first compound 1.265 µM
  relative viability: 0.808
NCI-H1944; first compound 4 µM
  relative viability: 0.864
NCI-H596; first compound 0.04 µM
  relative viability: 0.503
NCI-H596; first compound 0.1265 µM
  relative viability: 0.499
NCI-H596; first compound 0.4 µM
  relative viability: 0.498
NCI-H596; first compound 1.265 µM
  relative viability: 0.53
NCI-H596; first compound 4 µM
  relative viability: 0.511
NCI-H1975; first compound 0.04 µM
  relative viability: 0.618
NCI-H1975; first compound 0.1265 µM
  relative viability: 0.62
NCI-H1975; first compound 0.4 µM
  relative viability: 0.627
NCI-H1975; first compound 1.265 µM
  relative viability: 0.553
NCI-H1975; first compound 4 µM
  relative viability: 0.519
EMC-BAC-2; first compound 0.04 µM
  relative viability: 0.714
EMC-BAC-2; first compound 0.1265 µM
  relative viability: 0.714
EMC-BAC-2; first compound 0.4 µM
  relative viability: 0.72
EMC-BAC-2; first compound 1.265 µM
  relative viability: 0.74
EMC-BAC-2; first compound 4 µM
  relative viability: 0.729
EKVX; first compound 0.04 µM
  relative viability: 0.939
EKVX; first compound 0.1265 µM
  relative viability: 0.821
EKVX; first compound 0.4 µM
  relative viability: 0.824
EKVX; first compound 1.265 µM
  relative viability: 0.829
EKVX; first compound 4 µM
  relative viability: 0.785
HCC-366; first compound 0.04 µM
  relative viability: 0.388
HCC-366; first compound 0.1265 µM
  relative viability: 0.346
HCC-366; first compound 0.4 µM
  relative viability: 0.461
HCC-366; first compound 1.265 µM
  relative viability: 0.33
HCC-366; first compound 4 µM
  relative viability: 0.396
A-427; first compound 0.04 µM
  relative viability: 0.988
A-427; first compound 0.1265 µM
  relative viability: 1.06
A-427; first compound 0.4 µM
  relative viability: 1.13
A-427; first compound 1.265 µM
  relative viability: 1.11
A-427; first compound 4 µM
  relative viability: 1.08
H3255; first compound 0.04 µM
  relative viability: 0.649
H3255; first compound 0.1265 µM
  relative viability: 0.666
H3255; first compound 0.4 µM
  relative viability: 0.514
H3255; first compound 1.265 µM
  relative viability: 0.705
H3255; first compound 4 µM
  relative viability: 0.618
NCI-H1734; first compound 0.04 µM
  relative viability: 0.747
NCI-H1734; first compound 0.1265 µM
  relative viability: 0.684
NCI-H1734; first compound 0.4 µM
  relative viability: 0.743
NCI-H1734; first compound 1.265 µM
  relative viability: 0.685
NCI-H1734; first compound 4 µM
  relative viability: 0.689
COR-L 105; first compound 0.04 µM
  relative viability: 0.994
COR-L 105; first compound 0.1265 µM
  relative viability: 0.994
COR-L 105; first compound 0.4 µM
  relative viability: 1.15
COR-L 105; first compound 1.265 µM
  relative viability: 1.12
COR-L 105; first compound 4 µM
  relative viability: 1.04
NCI-H441; first compound 0.04 µM
  relative viability: 0.808
NCI-H441; first compound 0.1265 µM
  relative viability: 0.627
NCI-H441; first compound 0.4 µM
  relative viability: 0.733
NCI-H441; first compound 1.265 µM
  relative viability: 0.836
NCI-H441; first compound 4 µM
  relative viability: 0.859
LOU-NH91; first compound 0.04 µM
  relative viability: 0.75
LOU-NH91; first compound 0.1265 µM
  relative viability: 0.702
LOU-NH91; first compound 0.4 µM
  relative viability: 0.595
LOU-NH91; first compound 1.265 µM
  relative viability: 0.704
LOU-NH91; first compound 4 µM
  relative viability: 0.732
